The structures appear in SMILES notation. Bounds are passed on as bounds.

The term IC50 denotes the midpoint of a concentration-inhibition curve. By melting point is commonly meant the temperature of the solid-liquid transition.

The first series concerns the target T1, SCD1 (Mus musculus, UniProt P13516).
T1 construct: Mouse liver microsomes, prepared from mice fed a high carbohydrate diet, were a source of the SCD; from tissue; host or cells: mouse liver microsomes (mice fed a high carbohydrate diet)
T1 sequence (P13516 1-355): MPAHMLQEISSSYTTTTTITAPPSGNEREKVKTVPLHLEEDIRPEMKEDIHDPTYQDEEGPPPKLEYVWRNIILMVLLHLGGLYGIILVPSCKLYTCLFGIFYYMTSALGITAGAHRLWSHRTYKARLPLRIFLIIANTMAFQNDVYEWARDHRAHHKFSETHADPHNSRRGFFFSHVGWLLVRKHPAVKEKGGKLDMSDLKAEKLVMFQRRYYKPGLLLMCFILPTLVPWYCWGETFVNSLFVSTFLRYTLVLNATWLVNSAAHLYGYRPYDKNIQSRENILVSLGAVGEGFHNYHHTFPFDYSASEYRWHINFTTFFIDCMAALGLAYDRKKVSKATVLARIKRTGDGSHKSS
Kind of series: SCD assay: release of tritiated water from desaturation of 9,10-3H-stearoyl CoA, mouse liver microsomes. Type of series: biochemical. From the text:
Stearoyl CoA desaturase activity was monitored by a modification of the acyl carrier protein assay described by B. R. Talamo and K. Bloch in Anal. Biochem. 1968, 29, 300-304. The SCD assay monitors the release of tritiated water from the desaturation of 9,10-^3H-stearoyl CoA.
Mouse liver microsomes, prepared from mice fed a high carbohydrate diet, were a source of the SCD and cyt b5 and cyt b5 reductase, necessary accessory proteins for the coupled reaction. Reaction mixtures for compound titrations contained 50 mM Tris HCl pH 7.5, 100 mM NaCl, 0.165 mg/ml BSA, 2.4% DMSO, 1 mM NADH, 0.03% T-20, and 300 nM (9,10) ^3H-stearoyl CoA (Perkin-Elmer). Reactions were initiated upon the addition of 4 ug/ml SCD microsomes. Incubations were terminated after 25 minutes at room temperature with cold 6% TCA. After standing 10 minutes at 4 deg C., samples were centrifuged 15 minutes at 4000 rpm to pellet precipitated protein. Supernatants were added to microtiter plates containing suspensions of activated charcoal (Darco G-60, Fisher Scientific) and mixed by inversion. Plates were then centrifuged to separate ^3H—H2O product from charcoal-bound reactants. Supernatants were quantitated in a Perkin Elmer Topcount 384 after solubilization in ScintiSafe Plus 50% (Fisher Scientific).
Inhibition (%) of SCD activity by compounds was calculated according to the following formula: % Inhibition=100*[1−(CPMsample−CPMblank)/(CPMtotal−CPMblank)]
(In general: Microsomes from liver hold many membrane-bound enzymes, among them those of drug oxidation.)
For `O=c1cc(N2CCN(Cc3ccc(F)cc3Cl)CC2)nc[nH]1` [Example 32, 6-[4-(2-Chloro-4-fluoro-benzyl)-piperazin-1-yl]-3H -pyrimidin-4-one], the IC50 is at least 1100 nM.

For `O=c1cc(N2CCN(Cc3cccc(F)c3)CC2)nc[nH]1` [Example 33, 6-[4-(3-Fluoro-benzyl)-piperazin-1-yl]-3H-pyrimidin-4-one], the IC50 was at least 1100 nM.

With `O=c1cc(N2CCN(Cc3ccc(Br)cc3F)CC2)nc[nH]1` [Example 34, 6-[4-(4-Bromo-2-fluoro-benzyl)-piperazin-1-yl]-3H -pyrimidin-4-one], the concentration for half-maximal inhibition (IC50) is at least 1100 nM.

`O=c1cc(N2CCN(Cc3cc(F)ccc3O)CC2)nc[nH]1` [Example 43, 6-[4-(5-Fluoro-2-hydroxy-benzyl)-piperazin-1-yl]-3H -pyrimidin-4-one]: the IC50 was at most 1000 nM.

Regarding `O=c1cc(N2CCN(Cc3cc(F)cc(F)c3O)CC2)nc[nH]1` [Example 44, 6-[4-(3,5-Difluoro-2-hydroxy-benzyl)-piperazin-1-yl]-3H-pyrimidin-4-one], the half-maximal inhibitory concentration (IC50) was at most 1000 nM.

With `O=c1cc(N2CCN(Cc3cccc(Cl)c3O)CC2)nc[nH]1` [Example 45, 6-[4-(3-Chloro-2-hydroxy-benzyl)-piperazin-1-yl]-3H -pyrimidin-4-one], the IC50 was at most 1000 nM.

Take `O=c1cc(N2CCN(Cc3cc(Cl)ccc3O)CC2)nc[nH]1` [Example 46, 6-[4-(5-Chloro-2-hydroxy-benzyl)-piperazin-1-yl]-3H -pyrimidin-4-one]: the IC50 was at most 1000 nM.

Molecule `Cc1cc(Cl)cc(CN2CCN(c3cc(=O)[nH]cn3)CC2)c1O` [Example 47, 6-[4-(5-Chloro-2-hydroxy-3-methyl-benzyl)-piperazin-1-yl]-3H-pyrimidin-4-one] returned an IC50 of at most 1000 nM.

The molecule `O=c1cc(N2CCN(Cc3cccc(Br)c3O)CC2)nc[nH]1` [Example 48, 6-[4-(3-Bromo-2-hydroxy-benzyl)-piperazin-1-yl]-3H -pyrimidin-4-one] displayed an IC50 of at most 1000 nM.

In turn, `O=c1cc(N2CCN(Cc3cc(Br)cc(Br)c3O)CC2)nc[nH]1` [Example 49, 6-[4-(3,5-Dibromo-2-hydroxy-benzyl)-piperazin-1-yl]-3H-pyrimidin-4-one] returned an IC50 of at most 1000 nM.

Molecule `O=c1cc(N2CCN(Cc3cc(Cl)cc(Br)c3O)CC2)nc[nH]1` [Example 50, 6-[4-(3-Bromo-5-chloro-2-hydroxy-benzyl)-piperazin-1-yl]-3H-pyrimidin-4-one] displayed a concentration for half-maximal inhibition (IC50) of at most 1000 nM.

Consider `O=c1cc(N2CCN(Cc3cc(I)ccc3O)CC2)nc[nH]1` [Example 51, 6-[4-(2-Hydroxy-5-iodo-benzyl)-piperazin-1-yl]-3H -pyrimidin-4-one], for which the IC50 is at most 1000 nM.

`C=CCc1cc(CN2CCN(c3cc(=O)[nH]cn3)CC2)c(O)c(OC)c1` [Example 52, 6-[4-(5-Allyl-2-hydroxy-3-methoxy-benzyl)-piperazin-1-yl]-3H -pyrimidin-4-one] showed an IC50 of at least 1100 nM.

`COc1cc(Cl)cc(CN2CCN(c3cc(=O)[nH]cn3)CC2)c1O` [Example 53, 6-[4-(5-Chloro-2-hydroxy-3-methoxy-benzyl)-piperazin-1-yl]-3H -pyrimidin-4-one] displayed a half-maximal inhibitory concentration (IC50) of at most 1000 nM.

With `COc1cc(I)cc(CN2CCN(c3cc(=O)[nH]cn3)CC2)c1O` [Example 54, 6-[4-(2-Hydroxy-5-iodo-3-methoxy-benzyl)-piperazin-1-yl]-3H -pyrimidin-4-one], the IC50 is at most 1000 nM.

Take `COc1cc([N+](=O)[O-])cc(CN2CCN(c3cc(=O)[nH]cn3)CC2)c1O` [Example 55, 6-[4-(2-Hydroxy-3-methoxy-5-nitro-benzyl)-piperazin-1-yl]-3H-pyrimidin-4-one]: the IC50 is at least 1100 nM.

Tested on in the next series: not given
Assay: not given
As for `O=c1cc(N2CCN(Cc3ccc(F)cc3Cl)CC2)nc[nH]1` [Example 32, 6-[4-(2-Chloro-4-fluoro-benzyl)-piperazin-1-yl]-3H -pyrimidin-4-one], the melting point was 255 to 256 °C (dec.).

For `O=c1cc(N2CCN(Cc3cccc(F)c3)CC2)nc[nH]1` [Example 33, 6-[4-(3-Fluoro-benzyl)-piperazin-1-yl]-3H-pyrimidin-4-one], the melting point was 273 to 275 °C (dec.).

`O=c1cc(N2CCN(Cc3ccc(Br)cc3F)CC2)nc[nH]1` [Example 34, 6-[4-(4-Bromo-2-fluoro-benzyl)-piperazin-1-yl]-3H -pyrimidin-4-one] displayed a melting point of 275 to 276 °C.

Source of the values: patent publication US7652013B2, “Inhibitors of stearoyl-CoA desaturase” (Hoffman-La Roche Inc., priority 2007, dated 2010).
